Key:
[1] = Stabilization Test 1 for TPM-PS (storage at 37° C., absorbance at 600 nm); format: physicochemical; details: for absorbance at 600 nm, 2-Week storage / absorbance at 600 nm, 3-Week storage / absorbance at 600 nm, Time 0: 37° C.; for absorbance at 600 nm, Time 0: time 0 (start)
Method: TPM-PS was dissolved in each of the aqueous solutions described below so as to attain a concentration of 60 μM, and stored at 37° C. Subsequently, absorbance was measured at 600 nm by means of an automated analyzer (Model 7150; product of Hitachi, Ltd.).

[2] = Stabilization Test 2 for TPM-PS (storage at 25° C. for 10 days, absorbance at 600 nm); format: physicochemical; details: for Variation over 10 days (OD): 600 nm
Method: TPM-PS was dissolved in each of the aqueous solutions described below so as to attain a concentration of 100 μM, and absorbance was measured at 600 nm. After each sample was stored at 25° C. for 10 days, absorbance was again measured at 600 nm.

[3] = 60 μM in 5 mM Citric acid (pH 2.8)
[4] = 60 μM in 5 mM Maleic acid (pH 2.5)
[5] = 60 μM in 5 mM Tartaric acid (pH 2.8)

Question: Which “absorbance at 600 nm, 2-Week storage” value [1, 3] does the source give for `O=S(=O)(O)CCCN(CCCS(=O)(=O)O)c1ccc(C(c2ccc(N(CCCS(=O)(=O)O)CCCS(=O)(=O)O)cc2)c2ccc(N(CCCS(=O)(=O)O)CCCS(=O)(=O)O)cc2)cc1` [TPM-PS, N,N,N′,N′,N″,N″-hexa-3-sulfopropyl-4,4′,4″-triaminotriphenylmethane] here?
Answer: Its value is 0.057.

Question: What about the “absorbance at 600 nm, 3-Week storage” value [1, 3] of the same compound?
Answer: Its value is 0.080.

Question: What about the “absorbance at 600 nm, Time 0” value [1, 3] of the same compound?
Answer: The value was 0.022.

Question: What about the “absorbance at 600 nm, 2-Week storage” value [1, 4] of the same compound?
Answer: The value was 0.050.

Question: And the “absorbance at 600 nm, 3-Week storage” value [1, 4]?
Answer: Its value is 0.072.

Question: What about the “absorbance at 600 nm, Time 0” value [1, 4] of the same compound?
Answer: Its value is 0.023.

Question: And the “absorbance at 600 nm, 2-Week storage” value [1, 5]?
Answer: Its value is 0.064.

Question: What about the “absorbance at 600 nm, 3-Week storage” value [1, 5] of the same compound?
Answer: The value was 0.088.

Question: And the “absorbance at 600 nm, Time 0” value [1, 5]?
Answer: Its value is 0.024.

Question: And the “absorbance at 600 nm, 2-Week storage” value ([1]; 60 μM in 20 mM PB-K (pH 8))?
Answer: Its value is 0.132.

Question: And the “absorbance at 600 nm, 3-Week storage” value ([1]; 60 μM in 20 mM PB-K (pH 8))?
Answer: The value was 0.215.

Question: And the “absorbance at 600 nm, Time 0” value ([1]; 60 μM in 20 mM PB-K (pH 8))?
Answer: Its value is 0.023.

Question: And the “nonspecific color development / stability in solution” value ([1]; aqueous solutions of pH 1 to 5, 37° C.)?
Answer: The value was “suppressed effectively”.

Question: What about the “Variation over 10 days (OD)” value ([2]; 100 μM in 100 mM Citrate buffer, pH 3, 25° C.) of the same compound?
Answer: The value was −0.01 OD.

Question: And the “Variation over 10 days (OD)” value ([2]; 100 μM in 100 mM Citrate buffer, pH 4, 25° C.)?
Answer: The value was 0.08 OD.

Question: And the “Variation over 10 days (OD)” value ([2]; 100 μM in 100 mM Citrate buffer, pH 5, 25° C.)?
Answer: The value was 0.15 OD.

Question: What about the “Variation over 10 days (OD)” value ([2]; 100 μM in 100 mM Glycine-HCl, pH 2, 25° C.) of the same compound?
Answer: The value was 0.00 OD.

Question: What about the “Variation over 10 days (OD)” value ([2]; 100 μM in 100 mM Glycine-HCl, pH 3, 25° C.) of the same compound?
Answer: Its value is −0.01 OD.

Question: And the “Variation over 10 days (OD)” value ([2]; 100 μM in 100 mM Potassium phosphate buffer, pH 6, 25° C.)?
Answer: Its value is 0.22 OD.

Question: And the “Variation over 10 days (OD)” value ([2]; 100 μM in 100 mM Potassium phosphate buffer, pH 7, 25° C.)?
Answer: The value was 0.16 OD.

Question: What about the “Variation over 10 days (OD)” value ([2]; 100 μM in 100 mM Potassium phosphate buffer, pH 8, 25° C.) of the same compound?
Answer: Its value is 0.17 OD.

Question: And the “Variation over 10 days (OD)” value ([2]; 100 μM in Control (purified water), pH Not regulated, 25° C.)?
Answer: Its value is 0.22 OD.

Question: And the “Variation over 10 days (OD)” value ([2]; 100 μM in HCl—KCl, pH 1, 25° C.)?
Answer: The value was −0.01 OD.

Question: What about the “Variation over 10 days (OD)” value ([2]; 100 μM in HCl—KCl, pH 2, 25° C.) of the same compound?
Answer: The value was 0.01 OD.

Question: And the “absorbance variation / storage stability” value ([2]; aqueous solution of pH 1 to 5, 25° C., 10 days)?
Answer: Its value is “stably stored”.

From patent publication US20080241816A1, “Method for Stabilizing Oxidizable Color Developing Reagent” (DAIICHI PURE CHEMICALS CO., LTD, priority 2004, published 2008)
